# According to US20260285850A1, “SUBSTITUTED OXAZOLIDINONES AND IMIDAZOLINONES AS HERBICIDES” (FMC CORPORATION, priority 2023, published 2026):
# Columns and labels:
# Assay type in all cases: in vivo
# soybean (Glycine max) [1] = test: Test A preemergence soil spray, visual injury rating 0-100; settings: 10 days, 0 = no effect, 100 = complete control
# Summary of the method: (§1)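 Loam-sand pots got test material in surfactant-containing solvent, either as a directed soil spray before emergence or on plants at the one- to two-leaf stage. Visual injury (0-100) was read after ten greenhouse days.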
# [2] = tested on: ryegrass, Italian (italian ryegrass, Lolium multiflorum); test: as above; settings: 10 days, 0 = no effect, 100 = complete control
# Summary of the method: as §1
# [3] = tested on: ragweed (common ragweed, Ambrosia artemisiifolia); test: as above; settings: 10 days, 0 = no effect, 100 = complete control
# Summary of the method: as §1
# [4] = tested on: wheat (Triticum aestivum); test: as above; settings: 10 days, 0 = no effect, 100 = complete control
# Summary of the method: as §1
# [5] = tested on: blackgrass (Alopecurus myosuroides); test: as above; settings: 10 days, 0 = no effect, 100 = complete control
# Summary of the method: as §1
# kochia (Bassia scoparia) [6] = test: as above; settings: 10 days, 0 = no effect, 100 = complete control
# Summary of the method: as §1
# [7] = tested on: palmer (palmer amaranth, palmer pigweed, Amaranthus palmeri); test: as above; settings: 10 days, 0 = no effect, 100 = complete control
# Summary of the method: as §1
# [8] = tested on: oat, wild (wild oat, Avena fatua); test: as above; settings: 10 days, 0 = no effect, 100 = complete control
# Summary of the method: as §1
# corn (Zea mays) [9] = test: as above; settings: 10 days, 0 = no effect, 100 = complete control
# Summary of the method: as §1
# [10] = tested on: barnyardgrass (Echinochloa crus-galli); test: as above; settings: 10 days, 0 = no effect, 100 = complete control
# Summary of the method: as §1
# rice (Oryza sativa) = test: Test B flooded paddy test, visual plant response rating 0-100; settings: 250 g ai/ha, Flood, applied to paddy water, evaluated after 13 days
# Summary of the method: (§2)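 Visual evaluation after 13 days. Water-applied treatment, 3 cm flood depth held constant, plants at 2-leaf stage at treatment.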
# [11] = tested on: barnyardgrass (Echinochloa crusgalli); test: as above; settings: 250 g ai/ha, Flood, applied to paddy water, evaluated after 13 days
# Summary of the method: as §2
# [12] = tested on: sedge, umbrella (small-flower umbrella sedge, Cyperus difformis); test: as above; settings: 250 g ai/ha, Flood, applied to paddy water, evaluated after 13 days
# Summary of the method: as §2
# [13] = tested on: ducksalad (Heteranthera limosa); test: as above; settings: 250 g ai/ha, Flood, applied to paddy water, evaluated after 13 days
# Summary of the method: as §2
# soybean (Glycine max) [14] = test: Test A postemergence application, visual injury rating 0-100; settings: 10 days
# Summary of the method: as §1
# [15] = tested on: ryegrass, Italian (italian ryegrass, Lolium multiflorum); test: as above; settings: 10 days
# Summary of the method: as §1
# [16] = tested on: ragweed (common ragweed, Ambrosia artemisiifolia); test: as above; settings: 10 days
# Summary of the method: as §1
# [17] = tested on: wheat (Triticum aestivum); test: as above; settings: 10 days
# Summary of the method: as §1
# [18] = tested on: blackgrass (Alopecurus myosuroides); test: as above; settings: 10 days
# Summary of the method: as §1
# kochia (Bassia scoparia) [19] = test: as above; settings: 10 days
# Summary of the method: as §1
# [20] = tested on: palmer (palmer amaranth, palmer pigweed, Amaranthus palmeri); test: as above; settings: 10 days
# Summary of the method: as §1
# [21] = tested on: horseweed (Erigeron canadensis); test: as above; settings: 10 days
# Summary of the method: as §1
# [22] = tested on: oat, wild (wild oat, Avena fatua); test: as above; settings: 10 days
# Summary of the method: as §1
# [23] = tested on: galium (catchweed bedstraw, Galium aparine); test: as above; settings: 10 days
# Summary of the method: as §1
# corn (Zea mays) [24] = test: as above; settings: 10 days
# Summary of the method: as §1
# [25] = tested on: barnyardgrass (Echinochloa crus-galli); test: as above; settings: 10 days
# Summary of the method: as §1
# [26] = 31 g ai/ha, postemergence, 0 = no effect, 100 = complete control
# [27] = Postemergence, 125 g ai/ha, 0 is no effect, 100 is complete control
smiles,measurement,setting,value
COC(=O)C1=CCC(NC(=O)C2(C)CN(c3cc(Cl)cc(Cl)c3)C(=O)O2)C1 (stereo not drawn) [Compound 58],Soybean plant response rating (0-100),soybean (Glycine max) [1]; 31 g ai/ha,20
same,Soybean plant response rating (0 to 100 scale),soybean (Glycine max) [1]; 125 g ai/ha,50
same,"Ryegrass, Italian plant response rating (0-100)",[2]; 31 g ai/ha,60
same,"Ryegrass, Italian plant response rating (0 to 100 scale)",[2]; 125 g ai/ha,80
same,Ragweed plant response rating (0-100),[3]; 31 g ai/ha,0
same,Ragweed plant response rating (0 to 100 scale),[3]; 125 g ai/ha,30
same,Wheat plant response rating (0-100),[4]; 31 g ai/ha,20
same,Wheat plant response rating (0 to 100 scale),[4]; 125 g ai/ha,90
same,Blackgrass plant response rating (0-100),[5]; 31 g ai/ha,10
same,Blackgrass plant response rating (0 to 100 scale),[5]; 125 g ai/ha,30
same,Kochia plant response rating (0-100),kochia (Bassia scoparia) [6]; 31 g ai/ha,10
same,Kochia plant response rating (0 to 100 scale),kochia (Bassia scoparia) [6]; 125 g ai/ha,70
same,"Amaranth, Palmer plant response rating (0-100)",[7]; 31 g ai/ha,80
same,"Amaranth, Palmer plant response rating (0 to 100 scale)",[7]; 125 g ai/ha,100
same,"Oat, Wild plant response rating (0-100)",[8]; 31 g ai/ha,10
same,"Oat, Wild plant response rating (0 to 100 scale)",[8]; 125 g ai/ha,30
same,Corn plant response rating (0-100),corn (Zea mays) [9]; 31 g ai/ha,10
same,Corn plant response rating (0 to 100 scale),corn (Zea mays) [9]; 125 g ai/ha,60
same,Barnyardgrass plant response rating (0-100),[10]; 31 g ai/ha,80
same,Barnyardgrass plant response rating (0 to 100 scale),[10]; 125 g ai/ha,90
same,"Plant response rating, Rice (0 to 100 scale, 0 is no effect and 100 is complete control)",rice (Oryza sativa),70
same,"Plant response rating, Barnyardgrass (0 to 100 scale, 0 is no effect and 100 is complete control)",[11],60
same,"Plant response rating, Sedge, Umbrella (0 to 100 scale, 0 is no effect and 100 is complete control)",[12],98
same,"Plant response rating, Ducksalad (0 to 100 scale, 0 is no effect and 100 is complete control)",[13],95
same,Soybean plant response rating (0-100),soybean (Glycine max) [14]; [26],90
same,Soybean plant response rating (0 to 100 scale),soybean (Glycine max) [14]; [27],90
same,"Ryegrass, Italian plant response rating (0-100)",[15]; [26],90
same,"Ryegrass, Italian plant response rating (0 to 100 scale)",[15]; [27],90
same,Ragweed plant response rating (0-100),[16]; [26],30
same,Ragweed plant response rating (0 to 100 scale),[16]; [27],70
same,Wheat plant response rating (0-100),[17]; [26],60
same,Wheat plant response rating (0 to 100 scale),[17]; [27],90
same,Blackgrass plant response rating (0-100),[18]; [26],90
same,Blackgrass plant response rating (0 to 100 scale),[18]; [27],100
same,Kochia plant response rating (0-100),kochia (Bassia scoparia) [19]; [26],80
same,Kochia plant response rating (0 to 100 scale),kochia (Bassia scoparia) [19]; [27],90
same,"Amaranth, Palmer plant response rating (0-100)",[20]; [26],90
same,"Amaranth, Palmer / Pigweed, Palmer plant response rating (0 to 100 scale)",[20]; [27],100
same,Horseweed plant response rating (0-100),[21]; [26],80
same,Horseweed plant response rating (0 to 100 scale),[21]; [27],90
same,"Oat, Wild plant response rating (0-100)",[22]; [26],30
same,"Oat, Wild plant response rating (0 to 100 scale)",[22]; [27],70
same,Galium plant response rating (0-100),[23]; [26],90
same,Galium plant response rating (0 to 100 scale),[23]; [27],90
same,Corn plant response rating (0-100),corn (Zea mays) [24]; [26],100
same,Corn plant response rating (0 to 100 scale),corn (Zea mays) [24]; [27],100
same,Barnyardgrass plant response rating (0-100),[25]; [26],90
same,Barnyardgrass plant response rating (0 to 100 scale),[25]; [27],90
